Data taken from a melting point compilation (Tetko et al.; mined from patent text by program, amines drawn as free bases though some values may be those of a salt).

Row | Structure (SMILES) | melting point
1 | CCCCCCCCCCc1nc(N(C)C)nc(OC)c1Br | 45 to 46 °C
2 | Cc1c(NC(=O)c2ccc(-c3ccc(C(F)(F)F)cc3)cc2F)ccc2cc(CN3CCCC3)cnc12 | 202 to 203 °C
3 | COC(=O)c1cc2cc(OC)c(OC)cc2c(-c2ccnc(-n3c(=O)cc(OCC(=O)OCc4ccccc4)c4ccccc43)c2)c1C(=O)OC | 186 to 189 °C
4 | CC1(C)CC(=C(c2ccc(O)cc2)c2ccc(-c3cccc(CO)c3)cc2)CC(C)(C)C1 | 197 to 198 °C
5 | OCC1OC(n2cnc3c(NC4Cc5ccccc5C4)ncnc32)C(O)C1O (configuration not stated) | 166 to 168 °C
6 | Nc1c([N+](=O)[O-])cc(C(F)(F)F)cc1[N+](=O)[O-] | 142 to 144 °C
7 | N#CN1c2ccccc2CC(=O)c2ccccc21 | 153 to 154 °C
8 | O[C@H]1c2cc(OCc3ccncc3)ccc2OC[C@H]1Cc1cccnc1 (relative stereo) | 100 to 102 °C
9 | COC(=O)c1c(C(F)F)nc(C(F)(F)F)c(C(=O)SC)c1NC1CC1 | 108 to 109 °C
10 | O=C1CCN(CC(c2ccccc2)c2ccccc2)CC1C1(O)CCN(CC(c2ccccc2)c2ccccc2)CC1 (configuration not stated) | 125 to 127 °C
11 | N#Cc1sc(Cl)nc1Cl | 34 to 35 °C
12 | CC(C)c1c(C=C(Br)Br)c(-c2ccc(F)cc2)n2ccccc12 | 118 to 120 °C
13 | COc1ccccc1CNc1ccc2cc(Nc3cccc(C)n3)ccc2n1 | 134 °C
14 | CNc1nc(-c2cccnc2)nc(SC)c1C(=O)Nc1ccc(OC)cc1 | 184 to 197 °C
15 | O=C(c1cccs1)c1cnn2c(-c3cccc(NC(=O)C4CCCCC4)c3)ccnc12 | 239 to 240 °C
16 | CS(=O)(=O)c1ccc(C2=C(I)C(=O)C3(CCOCC3)O2)cc1 | 210 to 213 °C
17 | O=C(Oc1ccc(Oc2ccccc2)cc1)N1CCC(O)CC1 | 130 to 133 °C
18 | CCC(c1ccccc1)c1c(O)c2c(oc1=O)CCCCCC2 (configuration not stated) | 201 to 202 °C
19 | Cn1nc(-c2nc(C=O)c(Cl)cc2F)c(Cl)c1OC(F)F | 120 to 121 °C
20 | OC1CSC(Oc2cccnc2-c2ccncc2)C(O)C1O (configuration not stated) | 129 °C
21 | OCc1conc1-c1ccc(-c2ccccc2)cc1 | 138 to 139 °C

Row | Structure (SMILES) | melting point
22 | CCN(C(C)=O)c1cccc(-c2ccnc3c(Cl)cnn23)c1 | 157 to 159 °C
23 | CN1CCOc2cc(S(=O)(=O)n3c(CCC(=O)O)cc4nc(Cl)ccc43)ccc21 | 175 to 185 °C
24 | OCCCCc1ccc(OCc2coc(/C=C/c3ccccc3)n2)cc1 | 90 to 91 °C
25 | CCn1nc2c(n1)C(N1CCN(C)CC1)=Nc1cc(F)ccc1N2 | 178 to 180 °C
26 | CC(=O)Nc1ccc(C#Cc2cnn3c(C(F)(F)F)cc(-c4ccc(C(F)(F)F)cc4)nc23)cn1 | 266 °C
27 | Cc1nnc(NCCCC(C)N2CCNCC2)c2cc3ccccn3c12 (configuration not stated) | 110 to 111 °C
28 | Cc1c(Cl)c([N+](=O)[O-])cc([N+](=O)[O-])c1Cl | 131 to 132 °C
29 | Cc1ccc(S(=O)(=O)N2CCCC2c2ccc(F)cc2)cc1 (racemic) | 128 °C
30 | Cn1nnnc1SCCCn1cc(C2=C(c3cn(C)c4ccccc34)C(=O)NC2=O)c2ccccc21 | 95 to 97 °C
31 | CC(C)c1ccc(C2(OC(=O)c3ccccc3)C(=O)c3ccccc3C2=O)c(O)c1 | 117 to 119 °C
32 | NC(N)=Nc1nc(-c2ccc(-c3nc(N)n[nH]3)o2)cs1 | > 300 °C
33 | O=C(Nc1c(Cl)cncc1Cl)c1ccc(OC(F)F)c2oc3ccc(C(F)(F)F)cc3c12 | 228 °C
34 | CC(C)(C)OC(=O)NC1Cc2ccc(NC(=O)c3ccccc3-c3ccc(C(F)(F)F)cc3)cc2C1 (configuration not stated) | 198 to 201 °C
35 | COc1ccc(-c2cccc3c2C2(COc4cc5c(cc42)OCCO5)C(=O)N3Cc2ccccn2)cc1 (configuration not stated) | 205 to 206 °C
36 | Cc1ccc(CSCc2ccc(C)cc2)cc1 | 74 to 76 °C
37 | Cc1c[nH]c2c1CC1CNCCC1C2 (configuration not stated) | 151 to 153 °C
38 | CC(Nc1ncnc2[nH]cnc12)c1oc2cccc(F)c2c(=O)c1-c1cccc(F)c1 (configuration not stated) | 195 to 198 °C
39 | Cc1c(CCC(=O)c2cn(Cc3ccccc3)c3ccccc23)ncn1C(c1ccccc1)(c1ccccc1)c1ccccc1 | 186 to 188 °C
40 | O=c1[nH]c2ncc(-c3ccn[nH]3)nc2n1CC1CCCCC1 | 264 to 266 °C
41 | CC(C)(c1ccc2ncccc2c1)n1nnc2ccc(-c3cnn(CCO)c3)nc21 | 95 to 98 °C
42 | COC(=O)c1ccc2[nH]c(=O)n(CCCCN3CC=C(c4ccccc4)CC3)c(=O)c2c1 | 138 °C

Row | Structure (SMILES) | melting point
43 | O=c1ccn(-c2ccncc2)nc1-c1ccnn1-c1ccccc1 | 202 to 203 °C
44 | CCCCCCCCCCCCN1C(=O)CC(c2cc(C(C)(C)C)c(O)c(C(C)(C)C)c2)C1=O (configuration not stated) | 66 to 70 °C
45 | Brc1cc2c(c(C34CC5CC(CC(C5)C3)C4)c1)OCO2 | 136 °C
46 | Cc1cn([C@H]2C=C[C@@H](O)C2)c(=O)nc1-n1cncn1 (racemic) | 143 to 146 °C
47 | CCOc1c(OC)c(OC)cc(C(=O)OC)c1-c1c(C(=O)OC)cc(OC)c2c1OCO2 | 93 to 94 °C
48 | CS(=O)(=O)Oc1ccc(N2CC(COc3ccc(C(=O)O)cc3)CC2=O)cc1 (configuration not stated) | 199 to 201 °C
49 | COc1cc2nc(N3CCN(C(=O)C=Cc4ccc(Br)cc4)CC3)nc(N)c2cc1OC | 266 to 268 °C
50 | O=C(NC(Cc1ccc(OCc2ccccc2)cc1)C(=O)O)c1cn2c(-c3ccc(Cl)cc3)cccc2n1 (configuration not stated) | 218 °C
51 | N#Cc1ccc(C2(n3ccnc3)Cc3ccccc3C2)cc1 | 150 to 152 °C
52 | O=C(O)c1ccccc1-c1ccc(CO)cc1 | 140 to 142 °C
53 | CC(C)(C)COc1ccc(N(CC(=O)O)C(=O)c2cnn(-c3ccc(F)cc3)c2)cc1C#N | 274 to 275 °C
54 | O=[N+]([O-])c1ccc2c(c1)CC(Cl)c1ccccc1S2 (configuration not stated) | 74 to 77 °C
55 | CCCCc1c2c(nc3cc(F)ccc13)-c1cc3c(c(=O)n1C2)COC(=O)CC3(O)CC (configuration not stated) | 235 to 236 °C
56 | CCC1(CC)C(=O)N(CCO)CC(C)(C)N1OC(C)(C)C#N | 80 to 82 °C
57 | O=C1c2cc3nnn(Cc4cnccn4)c(=O)c3cc2OC2CCCN12 (configuration not stated) | 229 to 231 °C
58 | CC1(C)C(=O)Nc2cc3[nH]c(N)nc3cc21 | 300 to 305 °C
59 | ClC1=Nc2nc(C3CCCC3)n(Cc3ccccc3)c2C2=N[C@H](Cc3ccccc3)CN12 | 124 to 125 °C
60 | CCOC(=O)c1c(CN2C(=O)CN(C)C2=O)nc2sc3c(c2c1-c1ccc(OC)c(OC)c1)CCN(C(=O)c1ccccc1)C3 | 185 to 187 °C
61 | CCC(C)(C)Nc1c(NCc2cc(C)cc(C)c2)c(=O)c1=O | 222 to 224 °C
62 | O=c1cc(-c2ccc(O)cc2)oc2c([N+](=O)[O-])cccc12 | 299 to 301 °C
63 | C[C@H](NC(=O)OC(C)(C)C)C(=O)N1CCC[C@H]1C(=O)N1CCC[C@H]1C(=O)OCc1ccccc1 | 143 to 145 °C

Second part, the compound after the results:

Row | melting point | Structure (SMILES)
64 | 314 to 316 °C | CCn1c(=O)c2cc(C(=O)O)cn2c2ccccc21
65 | 111 to 112 °C | CCOC(=O)C(C)Oc1ccc2c(c1)N(C)C(=O)N(c1ccc(Cl)cc1)S2(=O)=O (configuration not stated)
66 | 292 °C | Cc1ccc2c(c1)C=Cc1cc(C)c(C)cc1C2c1cn(Cc2ccc(C(=O)O)o2)c(=O)[nH]c1=S (configuration not stated)
67 | 203 to 204 °C | CCOC(=O)Cc1sc(SCc2cc(O)nc(O)n2)nc1C
68 | 140 to 142 °C | CCCc1nc2c(N)nc3ccccc3c2n1CCCC(C)N(OC)C(=O)Nc1ccccc1 (configuration not stated)
69 | 138 to 140 °C | CCOC(=O)C1Sc2ccccc2C1=O (configuration not stated)
70 | 76 °C | CCCCc1nc(Cc2ccc(-c3ccccc3C(=O)OC)cc2)c2ccccc2n1
71 | 107 °C | CC1(C)Oc2ccc([N+](=O)[O-])cc2C=C1CBr
72 | 63 to 64 °C | CCOC(=O)c1ccccc1CS(=O)(=O)Cl
73 | 89 to 90 °C | CCOC(OCC)C(=O)Nc1ccc(Cl)cc1N
74 | 211 °C | Cc1ccccc1C(=S)NC(=O)Nc1ccc(Cl)cc1
75 | 240 to 242 °C | Nc1ccc2c3c(cccc13)C(=O)N2
76 | 156 to 158 °C | CCOCCc1c(O)n2c3c(=O)n(C)c(=O)n(C)c3nc2n(Cc2ccccc2)c1=O
77 | 272 to 274 °C | CC(C)n1nc(-c2c(NC(=N)N)nc(N)nc2-c2ccccc2)ccc1=O
78 | 102 °C | O=C(O)CC1=CC2(Cc3ccc(Br)cc3)C(=O)N(c3cc(Cl)cc(Cl)c3)C(=O)N2C1 (configuration not stated)
79 | 188 to 190 °C | CC(=O)N[C@@H]1c2cc(C)ccc2OC(C)(C)[C@H]1O (relative stereo)
80 | 102 to 103 °C | CC(=O)NCC1CC1c1c(C2CC2)ccc2nn(C)cc12 (configuration not stated)

Row | melting point | Structure (SMILES)
81 | 87 to 90 °C | CCOC(=O)c1nc(-c2cccc(Br)c2)ns1
82 | 122 to 123 °C | C=Cc1c(N)nc(-c2ccc(C)cc2)nc1C(=O)OC
83 | 97 to 100 °C | Cc1ccc(C(CCN(C(C)C)C(C)C)(CCN(C(C)C)C(C)C)C(N)=O)cc1
84 | 60 to 61.5 °C | COc1ccc(C(=O)CC2CCCC2)c(Cl)c1Cl
85 | 248 to 249 °C | COc1ccc(-c2cc(=O)[nH]cn2)cc1OC
86 | 155 to 156 °C | O=C(Nc1c[nH]nc1C(=O)NCCO)c1ccccn1
87 | 53 to 55 °C | O=[N+]([O-])c1cc(CCCl)ccc1O
88 | 75 to 76 °C | CCc1cc(Oc2ccc([C@H](O)[C@@H](Cc3cccc(OC(F)(F)C(F)F)c3)C(=O)O)cc2)ccc1Cl (racemic)
89 | 203 to 206 °C | NC(=O)COc1cccc(NC(=O)c2cc(-c3cccc(F)c3)ccc2F)c1
90 | 105 to 108 °C | CCCc1c(OCCCOc2ccccc2C(=O)O)ccc(C(C)=O)c1O
91 | 143 to 144 °C | CCOC(=O)c1cccc(C2COc3c(ccc(O)c3C)C2)c1 (configuration not stated)
92 | 98 to 101 °C | Cc1cc(CBr)cc(Oc2nc(Cl)nc(Cl)c2C(C)C)c1
93 | 154 to 156 °C | Cc1cc(NC(=O)c2c(Cl)cccc2Cl)c2nccc(NNC(C)C)c2c1
94 | 69 °C | O=C(Nc1cccc(C(F)(F)F)c1)C(F)(F)F
95 | 200 °C | CCOC(=O)c1c(=O)c2cc(F)c(F)cc2n2ccccc12
96 | 58 to 59 °C | COC(=O)c1cc(N=Cc2ccccc2)ccc1O
97 | 183 to 191 °C | COc1ccc(C(C#N)=NO)cc1OC
